According to article PMC4486092 (Clinical Pharmacokinetics, 2015):

Experiments:
[1] = Population pharmacokinetic analysis of linagliptin plasma concentrations; format: in vivo, human (patients with T2DM)
[2] = not estimated, fixed to estimates of the previous model ref 15; cited from earlier work
[3] = single rising-dose study, healthy volunteers, up to a dose of 600 mg ref 5; cited from earlier work

Structure (SMILES): CC#CCn1c(N2CCC[C@@H](N)C2)nc2c1c(=O)n(Cc1nc(C)c3ccccc3n1)c(=O)n2C [linagliptin, (R)-8-(3-Amino-piperidin-1-yl)-7-but-2-ynyl-3-methyl-1-(4-methyl-quinazolin-2-ylmethyl)-3,7-dihydro-purine-2,6-dione]
- change in exposure, combination of covariate effects (largest decrease) ([1]; 5 mg, person, 117 kg, GGT 9.4 U/L, pre-dose DPP-4 activity 8,025 RFU): −26%
- increase in linagliptin exposure, impact of weight ([1]; 5th percentile of weight): 5.9%
- increase in linagliptin exposure with age ([1]; 73-year-old vs 42-year-old patient (95th and 5th percentile of age)): 13.8%
- decrease in linagliptin exposure, impact of weight ([1]; 95th percentile of weight): 8.7%
- Weight_F: percentage change in F per kg change from median weight of population ([1]; covariate effect, median weight 88 kg, final model): −0.958
- Dose_Ka: percentage change in Ka per dose unit change from the 5 mg dose group ([1]; covariate effect, final model): −6.51
- CL/F: typical clearance of the unbound concentration ([1]; final model): 258 L/h
- πF: intra-individual variability in relative bioavailability ([1]; final model): 40.0 CV %
- ωCL: inter-individual variability in clearance of the unbound concentration ([1]; final model): 27.5 CV %
- ωF: inter-individual variability in relative bioavailability ([1]; final model): 47.4 CV %
- ωKa: inter-individual variability in the absorption rate constant ([1]; final model): 76.4 CV %
- ωVC: inter-individual variability in the central volume of distribution ([1]; final model): 24.4 CV %
- Vd/F ([1]; human, in vivo): 715 L
- Ka,1: typical absorption rate constant study 1 ([1]; powder in bottle formulation, oral): 0.933 h⁻¹
- linear decrease in bioavailability for every 1 kg increase in weight ([1]; relative bioavailability, oral): 0.96%
- Ka,2: typical absorption rate constant study 2 ([1]; tablet formulation 1, oral): 0.795 h⁻¹
- Ka,3: typical absorption rate constant studies 3/4 ([1]; tablet formulation 2, oral): 0.441 h⁻¹
- VP/F: typical volume of distribution of the peripheral compartment [2]: 1,650 L
- tolerability of a single dose [3]: well tolerated
